Source: ChEMBL document CHEMBL6177956, “Discovery of first-in-class human glycolate oxidase near infrared molecular rotor inhibitors (NIRGOi)” (Eur J Med Chem, 2025)

Assays:
2-Hydroxyacid oxidase 2 [1] = biological target: T1, 2-Hydroxyacid oxidase 2 (Rattus norvegicus, UniProt Q07523); test: Inhibition of rat LCHAO using 2-hydroxyoctanoate as substrate incubated for 30 mins by Amplex Red reagent based fluorometric analysis; type: toxicity
T1 sequence (Q07523 whole entry): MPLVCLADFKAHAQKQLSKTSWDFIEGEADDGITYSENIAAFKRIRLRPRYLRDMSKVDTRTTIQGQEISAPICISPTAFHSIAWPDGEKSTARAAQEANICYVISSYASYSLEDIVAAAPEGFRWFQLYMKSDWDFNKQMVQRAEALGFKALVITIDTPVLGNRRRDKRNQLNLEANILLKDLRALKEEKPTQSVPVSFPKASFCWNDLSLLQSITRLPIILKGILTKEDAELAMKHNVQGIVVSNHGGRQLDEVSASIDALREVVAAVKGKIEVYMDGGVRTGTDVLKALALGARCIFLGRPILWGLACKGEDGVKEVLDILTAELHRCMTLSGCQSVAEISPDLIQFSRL

2-Hydroxyacid oxidase 2 [2] = biological target: T1, 2-Hydroxyacid oxidase 2; test: Binding affinity to rat LCHAO by Amplex Red reagent based fluorescence analysis; type: toxicity

SMILES	IC50 (2-Hydroxyacid oxidase 2 [1])	Kd (2-Hydroxyacid oxidase 2 [2])
O=C(O)c1cc(/C=C/C2=CC(=C3C(=O)c4ccccc4C3=O)c3ccccc3O2)ccc1O	248 µM	462 µM
N#CC(C#N)=C1C=C(/C=C/c2ccc(O)c(C(=O)O)c2)Oc2ccccc21	> 500 µM	> 1000 µM
CC1(C)C(/C=C/c2ccc(O)c(C(=O)O)c2)=[N+](CCC(=O)O)c2ccc3ccccc3c21	36.7 µM	3.2 µM
